Laboratory results as given in PMC9200625, “Identification and Functional Characterization of Peptides With Antimicrobial Activity From the Syphilis Spirochete, Treponema pallidum” (Frontiers in Microbiology, 2022).
Like-named read-outs stand apart in the source and are kept apart here. Bridge positions count the residues as written; N and C are the ends. Ends that are not written are not given here. Peptide text beside a SMILES is read from it.

Legend:
[1] = test system: N. gonorrhoeae ATCC 700825; type: cell-based, Neisseria gonorrhoeae
Method: (§1) Bacterial strains used in this study were: E. coli ATCC 9723H, Pseudomonas aeruginosa ATCC 10148, Staphylococcus aureus ATCC 6538P (penicillin resistant), Streptococcus pyogenes (hospital isolate, strain unknown), Mycobacterium smegmatis MC^2155, N. gonorrhoeae ATCC 700825 (streptomycin resistant), and Salmonella enterica subsp. enterica serovar Typhimurium SL1344 (streptomycin resistant). E. coli, P. aeruginosa, S. aureus, M. smegmatis, and S. enterica were cultured aerobically at 37°C in Mueller Hinton broth (MHB) (Sigma-Aldrich, MO, United States) and on nonselective Mueller Hinton agar (MHA) plates. S. pyogenes was cultured in 5% carbon dioxide at 37°C in MHB supplemented with 5% lysed horse blood (Quad Five, MT, United States) (MHB + 5% HB) and on nonselective MHA plates supplemented with 5% defibrinated sheep blood (Quad Five, MT, United States) (MHA + 5% SB). N. gonorrhoeae was cultured in 5% carbon dioxide at 37°C in gonococcal (GC) chocolate broth medium and on nonselective GC agar plates [GC medium base (BD Difco, MD, United States) supplemented with 1% BBL™ hemoglobin (BD Biosciences, MD, United States) and 1% IsoVitaleX (BD Biosciences, MD, United States)]. Prior to antimicrobial susceptibility assays (as described below), N. gonorrhoeae cultures were subcultured on nonselective GC agar plates (as described above), to ensure bacterial viability. All bacterial stocks were stored in 20% glycerol at –80°C.
The potential antimicrobial activity of the T. pallidum peptides against N. gonorrhoeae was determined using a modified agar dilution method. In this assay, N. gonorrhoeae colonies from GC chocolate agar plates were resuspended in MHB and the turbidity of the suspension was adjusted, as described above, to achieve the standardized microbial inoculum of approximately 5 × 10^5 CFU/mL. A two-fold serial dilution of the peptides (11 μL in sterile ultrapure water) was then prepared in wells 1–10 of a 96-well sterile polypropylene plate to obtain a dilution series corresponding to 10 times the required testing concentrations (2,560, 1,280, 640, 320, 160, 80, 40, 20, 10, 5 μg/mL). The bacterial suspension (100 μL) was dispensed into the wells containing the peptides. A negative growth/sterility control (well 12) contained bacterial growth media (100 μL) and the peptide solvent (11 μL of ultrapure sterile water). A positive growth control (well 11) contained the standardized number of bacterial cells (100 μL of ∼ 5.0 × 10^5 CFU/mL) and peptide solvent (11 μL of ultrapure sterile water). The 96-well plate was then incubated at 37°C in an atmosphere of 5% CO2 for 3 h to allow for peptide binding and antimicrobial activity. After the incubation period, an aliquot (20 μL) from wells 1–12 was removed and spotted onto the surface of a GC chocolate agar plate. N. gonorrhoeae spotted plates and TVC plates were incubated at 37°C in an atmosphere of 5% CO2 for 18–24 h. […] To determine the bactericidal activity of peptides, total viable counts (TVCs) were also prepared on GC chocolate agar plates for the 3 h-incubated peptide/bacteria mixtures. These counts were compared with TVCs from the corresponding positive growth wells to give the percentage of bacteria killed by each of the peptides following the 3-h incubation.

P. aeruginosa ATCC 10148 = type: cell-based, Pseudomonas aeruginosa
Method: as §1
(§2) Bacterial suspensions were prepared by transferring bacterial colonies into MHB and resuspending using a vortex mixer to ensure complete suspension of any bacterial aggregates. Turbidity of the colony suspensions was adjusted spectrophotometrically to the required optical densities to achieve a turbidity equivalent to that of a 0.5 McFarland standard (1–2 × 10^8 CFU/mL) followed by dilution in MHB to achieve the standardized microbial inoculum of approximately 5 × 10^5 CFU/mL. Total viable counts (TVC) were routinely performed on all inoculum suspensions to ensure correct bacterial cell densities. The standardized bacterial suspensions were then incubated with two-fold serial dilutions of each peptide (dissolved in 11 μL of ultrapure sterile water; final peptide concentration range of 256 μg/mL–0.5 μg/mL) in Greiner polypropylene round bottom 96-well microtiter plates (Sigma-Aldrich, MO, United States). Each peptide was tested once per experiment, with a range of 3–9 independent experiments performed per peptide. Negative growth/sterility control wells contained bacterial growth media (100 μL) and the peptide solvent (11 μL of ultrapure sterile water). Positive growth control wells contained the standardized number of bacterial cells (100 μL of ∼ 5.0 × 10^5 CFU/mL) and peptide solvent (11 μL of ultrapure sterile water). Plates were incubated at 37°C for 16–24 h and MICs were determined using the unaided eye to identify the lowest concentration of AMP that inhibited visible growth of the tested bacterial species. If the sterility control well was turbid, the test was not considered valid. MBCs were determined by plating the entire content of the wells containing the peptide/bacteria mixture representing the MIC and the entire contents of the preceding wells containing two-fold and four-fold more concentrated AMP dilutions onto nonselective agar plates.

M. smegmatis MC^2155 = type: cell-based, Mycobacterium smegmatis
Method: as §1, §2

[2] = test system: S. pyogenes Unknown strain; Clinical Isolate; type: cell-based, Streptococcus pyogenes; settings: for MIC: broth microdilution, cultured in MHB + 5% lysed horse blood, 5% carbon dioxide, ~5 × 10^5 CFU/mL, peptide 256–0.5 μg/mL, 37°C 16–24 h, visible growth
Method: as §1, §2

E. coli ATCC 9723H = type: cell-based
Method: as §1, §2

S. aureus ATCC 6538P = type: cell-based, Staphylococcus aureus
Method: as §1
(§3) Bacterial suspensions were prepared by transferring bacterial colonies into MHB and resuspending using a vortex mixer to ensure complete suspension of any bacterial aggregates. Turbidity of the colony suspensions was adjusted spectrophotometrically to the required optical densities to achieve a turbidity equivalent to that of a 0.5 McFarland standard (1–2 × 10^8 CFU/mL) followed by dilution in MHB to achieve the standardized microbial inoculum of approximately 5 × 10^5 CFU/mL. Total viable counts (TVC) were routinely performed on all inoculum suspensions to ensure correct bacterial cell densities. […] Plates were incubated at 37°C for 16–24 h and MICs were determined using the unaided eye to identify the lowest concentration of AMP that inhibited visible growth of the tested bacterial species. […] MBCs were determined by plating the entire content of the wells containing the peptide/bacteria mixture representing the MIC and the entire contents of the preceding wells containing two-fold and four-fold more concentrated AMP dilutions onto nonselective agar plates.

S. enterica SL1344 = type: cell-based, Salmonella enterica subsp. enterica serovar Typhimurium
Method: as §1, §3

[3] = range over 3–9 independent experiments
[4] = wells at MIC, two-fold and four-fold higher plated on nonselective agar, 24 h 37°C, range over 3–9 independent experiments
[5] = broth microdilution in MHB, ~5 × 10^5 CFU/mL, peptide 256–0.5 μg/mL two-fold dilutions, 37°C 16–24 h, visible growth by unaided eye, range over 3–9 independent experiments

Compound | N. gonorrhoeae killing (%) ([1]; ATCC 700825, 3 h, 32 μg/mL) | N. gonorrhoeae killing (%) ([1]; ATCC 700825, 3 h, 64 μg/mL) | N. gonorrhoeae killing (%) ([1]; ATCC 700825, 3 h, 128 μg/mL) | N. gonorrhoeae killing (%) ([1]; ATCC 700825, 3 h, 256 μg/mL) | MIC (M. smegmatis MC^2155; [5]) | MBC (M. smegmatis MC^2155; [4]) | MIC (E. coli ATCC 9723H; [5]) | other results
AMRIALWNRATHGEQGALQHLLAG [Tp0751_p5] | 0% | 0% | 0% | 0% | – | – | – | –
RSLEGTDRFPFVRLKNSRKLEFKDIKGIKREQFVKIL [sLL-37] | – | – | – | – | – | – | – | N. gonorrhoeae killing (%) ([1]; peptide 32 μg/mL, 3-h incubation 37°C 5% CO2, TVCs versus positive growth control, all of three to six independent experiments): 0%; N. gonorrhoeae killing (%) ([1]; peptide 64 μg/mL, 3-h incubation 37°C 5% CO2, TVCs versus positive growth control, all of three to six independent experiments): 0%; N. gonorrhoeae killing (%) ([1]; peptide 128 μg/mL, 3-h incubation 37°C 5% CO2, TVCs versus positive growth control, all of three to six independent experiments): 0%; N. gonorrhoeae killing (%) ([1]; peptide 256 μg/mL, 3-h incubation 37°C 5% CO2, TVCs versus positive growth control, all of three to six independent experiments): 0%; MIC (P. aeruginosa ATCC 10148; ATCC 10148): ≥57 µM; MIC (M. smegmatis MC^2155; MC^2155): 14.2 to 28.5 µM; MBC (M. smegmatis MC^2155; MC^2155, 24 h): ≥57 µM
IGRARAITHTWGIWCRWGKVWRRS [Tp0451a_C] | 0–93.0% | 90.5–100% | 94.4–100% | 97.6–100% | 1.4 to 2.7 µM | 1.4 to 5.4 µM | – | MIC [2, 3]: 5.4 to 10.8 µM; MBC [2, 4]: 5.4 to 43.3 µM
CC(C)C[C@H](NC(=O)[C@H](CCC(=O)O)NC(=O)[C@H](CC(N)=O)NC(=O)CNC(=O)[C@H](Cc1ccc(O)cc1)NC(=O)[C@H](CS)NC(=O)[C@H](Cc1c[nH]cn1)NC(=O)[C@H](CC(C)C)NC(=O)[C@H](CO)NC(=O)[C@H](CCCNC(=N)N)NC(=O)[C@H](Cc1c[nH]cn1)NC(=O)[C@H](Cc1ccc(O)cc1)NC(=O)CNC(=O)[C@@H](NC(=O)[C@H](CC(N)=O)NC(=O)[C@H](CS)NC(=O)[C@H](CC(N)=O)NC(=O)[C@H](CS)NC(=O)[C@H](Cc1c[nH]cn1)NC(=O)[C@H](CO)NC(=O)CNC(=O)[C@H](CS)NC(=O)CN)C(C)C)C(=O)N[C@@H](Cc1c[nH]cn1)C(=O)NCC(=O)N[C@@H](CCCCN)C(=O)N[C@@H](CCC(N)=O)C(=O)N[C@@H](CS)C(=O)NCC(=O)N[C@@H](Cc1ccccc1)C(=O)N[C@@H](CO)C(=O)N[C@@H](CCCNC(=N)N)C(=O)N[C@@H](CS)C(=O)NCC(=O)O [Tp0451a_N] (H-GCGSHCNCNVGYHRSLHCYGNELHGKQCGFSRCG-OH) | – | – | 0% | 0% | – | – | – | –
IGRARAITHTWGIWSRWGKVWRRS [Tp0451a_C_C85S] | 0% | 0% | 0% | 0% | 5.4 µM | 10.9 µM | 10.9 to 21.8 µM | MBC (E. coli ATCC 9723H; [4]): 10.9 to 43.6 µM; MIC [2, 3]: 5.4 to 10.9 µM; MBC [2, 4]: 10.9 to 43.6 µM
KGIVAERILKPCVRRKVNGKFRS [Tp0749_C] | – | – | 0% | 0% | 1.5 to 3.0 µM | 1.5 to 3.0 µM | 12.0 µM | MBC (E. coli ATCC 9723H; [4]): 48.2 to 96.4 µM; MIC (P. aeruginosa ATCC 10148; [5]): 24.1 to 48.2 µM; MBC (P. aeruginosa ATCC 10148; [4]): 96.4 µM
KGIVAERILKPSVRRKVNGKFRS [Tp0749_C_C61S] | – | – | 0% | 0% | 12.1 to 24.2 µM | 24.2 to 48.5 µM | 24.2 to 48.5 µM | MIC (P. aeruginosa ATCC 10148; [5]): 97.0 µM
PFMQVITWARLYHKNQKRYEKIKK [Tp0749_N] | – | – | 0% | 0% | 0.3 to 1.3 µM | 1.3 µM | – | –
CC[C@H](C)[C@H](NC(=O)[C@@H](NC(=O)[C@@H]1CCCN1C(=O)[C@H](Cc1ccccc1)NC(=O)[C@@H](N)Cc1ccccc1)[C@@H](C)CC)C(=O)N[C@@H](C)C(=O)N[C@@H](CCCNC(=N)N)C(=O)N[C@@H](CC(C)C)C(=O)N[C@@H](C)C(=O)N[C@@H](C)C(=O)N[C@@H](CCCCN)C(=O)N[C@H](C(=O)N[C@H](C(=O)N1CCC[C@H]1C(=O)N[C@@H](CO)C(=O)N[C@@H](CC(C)C)C(=O)N[C@H](C(=O)N[C@H]1CSSC[C@@H](C(=O)O)NC(=O)[C@H](CCCCN)NC(=O)[C@H](CCCCN)NC(=O)[C@H]([C@@H](C)O)NC(=O)[C@H](C(C)C)NC(=O)[C@H](C)NC1=O)C(C)C)[C@@H](C)CC)C(C)C [RaCa-2] (H-FFPIIARLAAKVIPSLVCAVTKKC-OH; disulfide 18-24; N-terminus and C-terminus assumed) | – | – | – | – | – | – | – | MIC (S. aureus ATCC 6538P; ATCC 6538): 3.1 to 6.2 µM; MBC (S. aureus ATCC 6538P; ATCC 6538, 24 h): 3.1 to 12.4 µM; MIC (E. coli ATCC 9723H; ATCC 9723): 3.1 to 12.4 µM; MBC (E. coli ATCC 9723H; ATCC 9723, 24 h): 6.2 to 24.7 µM; MBC ([2]; Unknown strain, Clinical Isolate, 24 h): 6.2 to 49.4 µM; MIC (P. aeruginosa ATCC 10148; ATCC 10148): 49.4 to 98.9 µM; MBC (P. aeruginosa ATCC 10148; ATCC 10148, 24 h): ≥98.9 µM; MIC (M. smegmatis MC^2155; MC^2155): 1.5 to 3.1 µM; MBC (M. smegmatis MC^2155; MC^2155, 24 h): 1.5 to 6.2 µM; MIC (S. enterica SL1344; SL1344): 6.2 to 49.4 µM; MBC (S. enterica SL1344; SL1344, 24 h): 12.4 to 98.9 µM
